Source: patent US20210315837A1, “CANNABINOIDS FOR THE TREATMENT OF GRAM-POSITIVE INFECTIONS INCLUDING ANTIBIOTIC-RESISTANT BACTERIAL STRAINS” (priority 2018, published 2021)
Converted amounts (≈) assume the structure as drawn. “And” between values parts separate entries of the source, which are not always exact repeats. Equal values may be shown once. Read-outs that look alike come from different tables or passages of the source.

Tests used:
MRS 1717 = test: Growth inhibition of cannabinoid combinations, IC50s chosen for FICs, MRS 1717; format: cell-based; settings: Staphylococcus aureus
MRS 1708 = test: Growth inhibition of cannabinoid combinations, IC50s chosen for FICs, MRS 1708; format: cell-based; settings: Staphylococcus aureus
[1] = test system: MRS 1708 (Mupirocin-resistant); test: IC50, MIC and MBC against MRS 1708 (Mupirocin-resistant); format: cell-based, Staphylococcus aureus; settings: for IC50 / MBC / MIC: Staphylococcus aureus
Procedure: (§1) As used herein, the term “minimum inhibitory concentration (MIC)” refers to the lowest concentration of an antimicrobial agent that will inhibit the visible growth of a microorganism after overnight incubation. MIC values against bacteria may be determined by standard methods. See also P. A. Wayne, Methods for Dilution Antimicrobial Tests for Bacteria that Grow Aerobically; Approved Standard, Ninth Edition, 2012, CLSI Document M07-A9, Vol. 32 No. 2, which is incorporated by reference herein in its entirety.

S. aureus 29213 = test: IC50, MIC and MBC against S. aureus 29213; format: cell-based; settings: Staphylococcus aureus; for IC50: 29213; for MIC: S. aureus 29213, tested Conc. in μg/mL, read-out: MIC
Procedure: As used herein, the term “minimum inhibitory concentration (MIC)” refers to the lowest concentration of an antimicrobial agent that will inhibit the visible growth of a microorganism after overnight incubation. MIC values against bacteria may be determined by standard methods.

MRS 33591 [2] = test: Growth inhibition of cannabinoid combinations, IC50s chosen for FICs, MRS 33591; format: cell-based; settings: Staphylococcus aureus
Mupirocin-resistant MRS = format: cell-based, Staphylococcus aureus; settings: in combination with Mupirocin
MRS 33591 [3] = test: IC50, MIC and MBC against MRS 33591; format: cell-based, Staphylococcus aureus
Procedure: as §1

MRS 1696 = test: Growth inhibition of cannabinoid combinations, IC50s chosen for FICs, MRS 1696; format: cell-based; settings: Staphylococcus aureus
MRS USA 300 = test: IC50, MIC and MBC against MRS USA 300; format: cell-based, Staphylococcus aureus
Procedure: as §1

MRS USA 400 = test: IC50, MIC and MBC against MRS USA 400; format: cell-based, Staphylococcus aureus
Procedure: as §1

[4] = read-out: IC50, Cannabidiol (CBD) + Cannabigerol (CBG)
[5] = read-out: IC50, Cannabinol (CBN) + Cannabigerol (CBG)
[6] = IC50 of first-named cannabinoid at the fixed ug/mL of the second given in the label, read-out: IC50, Cannabinol (CBN) + Cannabigerol (CBG)
[7] = read-out: IC50, Cannabidiol (CBD) + Cannabigerol (CBG), IC50 of first-named cannabinoid at the fixed ug/mL of the second given in the label
[8] = MRS 33591, tested Conc. in μg/mL
[9] = MRS USA 300, tested Conc. in μg/mL
[10] = MRS USA 400, tested Conc. in μg/mL
[11] = read-out: IC50, Cannabidiol (CBD) + Cannabinol (CBN)
[12] = read-out: IC50, Cannabidiol (CBD) + Cannabinol (CBN), IC50 of first-named cannabinoid at the fixed ug/mL of the second given in the label

Compound	IC50 (MRS 1717; [4]) [µg/mL]	IC50 (MRS 1717; [5]) [µg/mL]	IC50 (MRS 1708; [6]) [µg/mL]	IC50 (MRS 1708; [7]) [µg/mL]	IC50 [1]	MBC [1] [µM]	MIC [1] [µM]	IC50 (S. aureus 29213) [µg/mL]	MIC (S. aureus 29213) [µg/mL]	IC50 (MRS 33591 [2]; [4]) [µg/mL]	effect of combination with Mupirocin (Mupirocin-resistant MRS)	IC50 (MRS 33591 [3]; Staphylococcus aureus)	MIC (MRS 33591 [3]; Staphylococcus aureus)	MIC (MRS USA 300; [9])	IC50 (MRS USA 300; Staphylococcus aureus, USA300)	MBC (MRS USA 300; Staphylococcus aureus, USA300) [µM]	MIC (MRS USA 300; Staphylococcus aureus, USA300) [µM]	MIC (MRS USA 400; [10])	IC50 (MRS USA 400; Staphylococcus aureus, USA400)	MIC (MRS USA 400; Staphylococcus aureus, USA400) [µM]	other results
CCCCCc1cc(O)c(C/C=C(\C)CCC=C(C)C)c(O)c1 [CBG, Cannabigerol]	0.741	0.911	0.872	0.959	2.34 µM and 0.74 µg/mL	> 63	3.95 (≈ 1.25 µg/mL)	0.75 (≈ 2.37 µM)	1.25 (≈ 3.95 µM)	1.08	no effect	2.31 µM and 0.73 µg/mL	3.95 µM and 1.25 µg/mL	1.67	2.43 µM and 0.77 µg/mL	> 63	5.28 ± 2.27 (≈ 1.67 µg/mL)	1.67	2.72 µM and 0.86 µg/mL	5.28 ± 2.27 (≈ 1.67 µg/mL)	IC50 (MRS 33591 [2]; [5]): 1.05 µg/mL; MBC (MRS 33591 [3]; [8]): 3.75; MBC (MRS 33591 [3]; Staphylococcus aureus): 11.8 ± 5.59 µM (≈ 3.75 µg/mL); IC50 (MRS 1696; [4]): 0.9 µg/mL; IC50 (MRS 1696; [5]): 0.896 µg/mL; MBC (MRS USA 400; Staphylococcus aureus, USA400): > 63 µM
CCCCCc1cc(O)c2c(c1)OC(C)(C)c1ccc(C)cc1-2 [CNB, Cannabinol]	–	1.11	1.07	–	2.77 µM and 0.86 µg/mL	6.7 ± 2.32 (≈ 2.08 µg/mL)	5.38 ± 7.32 (≈ 1.67 µg/mL)	0.92 (≈ 2.96 µM)	1.67 (≈ 5.38 µM)	–	no effect	2.48 µM and 0.77 µg/mL	4.03 µM and 1.25 µg/mL	2.5 ± 0	3.32 µM and 1.03 µg/mL	10.7 ± 4.64 (≈ 3.33 µg/mL)	8.05 (≈ 2.5 µg/mL)	2.5 ± 0	4.16 µM and 1.29 µg/mL	8.05 (≈ 2.5 µg/mL)	IC50 (MRS 1717; [11]): 0.908 µg/mL; IC50 (MRS 1708; [12]): 0.956 µg/mL; AMC ([1]; Mupirocin-resistant MRS (Table 11)): 2.08 ± 0.72; IC50 (MRS 33591 [2]; [11]): 1.09 µg/mL; IC50 (MRS 33591 [2]; [5]): 1.11 µg/mL; MBC (MRS 33591 [3]; [8]): 4.17; MBC (MRS 33591 [3]; Staphylococcus aureus): 13.4 ± 4.64 µM (≈ 4.17 µg/mL); IC50 (MRS 1696; [11]): 1.5 µg/mL; IC50 (MRS 1696; [5]): 1.32 µg/mL; MBC (MRS USA 300; [9]): 3.33; MBC (MRS USA 400; [10]): 5.83 ± 3.82; MBC (MRS USA 400; Staphylococcus aureus, USA400): 18.8 ± 12.3 µM (≈ 5.83 µg/mL)
C=C(C)[C@@H]1CCC(C)=C[C@H]1c1c(O)cc(CCCCC)cc1O [CBD, Cannabidiol]	0.864	–	–	0.96	2.86 µM and 0.9 µg/mL	10.6 ± 4.58 (≈ 3.33 µg/mL)	5.31 ± 2.29 (≈ 1.67 µg/mL)	1.16 (≈ 3.69 µM)	2.08 (≈ 6.61 µM)	1.23	no effect	3.24 µM and 1.02 µg/mL	6.61 µM and 2.08 µg/mL	1.67	2.99 µM and 0.94 µg/mL	10.6 ± 4.58 (≈ 3.33 µg/mL)	5.31 ± 2.29 (≈ 1.67 µg/mL)	2.5 ± 0	3.69 µM and 1.16 µg/mL	7.95 (≈ 2.5 µg/mL)	IC50 (MRS 1717; [11]): 1.1 µg/mL; IC50 (MRS 1708; [12]): 1.06 µg/mL; IC50 (MRS 33591 [2]; [11]): 1.28 µg/mL; IC50 (MRS 1696; [4]): 1.28 µg/mL; IC50 (MRS 1696; [11]): 1.36 µg/mL; MBC (MRS USA 300; [9]): 3.33
